From patent US10294212B2 (CURADEV PHARMA PRIVATE LTD., priority 2013, dated 2019) come the findings set out here.

As usually defined, the pIC50 is −log10 of the IC50, conventionally taken in molar units.

SMILES strings stand for the structures. pIC50: −log10 of the molar value.

One experiment addresses IDO1 in HeLa cells (Homo sapiens (Human), UniProt P14902). Kind of experiment: HeLa cell based IDO1 assay (IFNγ-induced, KYN in supernatant). The method, then:
HeLa cells were obtained from ATCC and maintained in DMEM supplemented with sodium bicarbonate (2.1 g/L), HEPES (4.1 g/L), L-glutamine (2 mM), non-essential amino acid (84 mg/L) and fetal bovine serum (10% FBS) and maintained at 95% humidity and 5% CO2 in a 37° C. incubator. Unless otherwise stated, all materials were procured from Sigma. Upon incubation with gamma-interferon (IFNγ ), HeLa cells express IDO1, which catalyzes the formation of N-formyl kynurenine from tryptophan present in growth medium. The assay was performed as follows:
Cells were plated in medium (300 μL) at a density of 0.1 million per well of a 48 well plate and hIDO1 was induced by overnight treatment with IFNγ (50 ng/mL) (Peprotech, USA). The following day, cells were washed to remove IFNγ and were incubated with specific concentrations of test compounds (typically 10 μM to 1 nM, final volume 300 μL) in Hanks Balanced Salt Solution (HBSS) containing 80 μM L-tryptophan. Following incubation, supernatant (150 μL) was transferred to a 96 well plate into which 30%TCA (304) was added and the contents further incubated at 65° C. for 15 min to fully convert N-formylkynurenine to kynurenine. The reaction mixture was then centrifuged to remove sediments and the KYN in the supernatant was estimated by UV-visible absorption spectroscopy at 360 nm using a Waters HPLC system fitted with a C-18 column. (Xiangdong Liu et al. Blood 2010, Vol-117, 3520-30; Sono described above).
Percent inhibition at each concentration of test compounds was determined by estimating the decrease in KYN with reference to the reaction control with 1% DMSO vehicle. Data were analyzed using nonlinear regression to generate IC50 values using Graph Pad Prism® 5.

Experiment [1] has as its target Human indoleamine 2,3-dioxygenase1 (hIDO1) (Homo sapiens (Human), UniProt P14902). Kind of experiment: In-vitro IDO1 enzyme assay (conversion of L-tryptophan to KYN). As to conditions: read-out: IC50 (IDO1) Enz. In kind it is biochemical. In short, it runs like this:
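Kynurenine formation quantified by HPLC absorbance at 360 nm or LC/MS/MS after TCA quench and 15 min at 65 °C. Reaction: 10 nM N-His hIDO1, 30 μM tryptophan, ascorbate/methylene blue/catalase, pH 6.5 phosphate buffer, 37 °C for 30 min. Inhibition relative to 1% DMSO vehicle, fitted to IC50.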

In experiment [2] the target is Human TDO (hTDO)-transfected CHO-K1 cells (Homo sapiens (Human), UniProt P48775). Put plainly: CHO-K1 cell based TDO assay. As to conditions: hTDO cellular assay. Summed up:
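Kynurenine output was read by LC/MS/MS after TCA precipitation and 15 min at 65° C. Before that, CHO-K1 cells stably carrying human TDO2 were incubated 2 h with compounds (typically 31 μM to 10 nM) and 80 μM L-tryptophan in HBSS. Decrease versus DMSO vehicle gave percent inhibition, then IC50.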

Sequence of Human indoleamine 2,3-dioxygenase1 (hIDO1) (P14902 whole entry): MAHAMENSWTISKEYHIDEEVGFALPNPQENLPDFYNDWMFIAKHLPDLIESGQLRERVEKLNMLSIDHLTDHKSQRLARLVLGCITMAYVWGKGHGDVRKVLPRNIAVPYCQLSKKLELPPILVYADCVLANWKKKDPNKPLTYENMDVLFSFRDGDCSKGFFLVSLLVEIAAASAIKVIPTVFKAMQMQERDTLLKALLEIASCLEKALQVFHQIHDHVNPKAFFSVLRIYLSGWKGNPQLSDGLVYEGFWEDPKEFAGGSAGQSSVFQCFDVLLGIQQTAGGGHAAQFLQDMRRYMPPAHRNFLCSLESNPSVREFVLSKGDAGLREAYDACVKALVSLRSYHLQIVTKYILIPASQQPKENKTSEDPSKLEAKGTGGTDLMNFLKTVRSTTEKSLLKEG
Sequence of IDO1 in HeLa cells (P14902 whole entry): as above
Sequence of Human TDO (hTDO)-transfected CHO-K1 cells (P48775 whole entry): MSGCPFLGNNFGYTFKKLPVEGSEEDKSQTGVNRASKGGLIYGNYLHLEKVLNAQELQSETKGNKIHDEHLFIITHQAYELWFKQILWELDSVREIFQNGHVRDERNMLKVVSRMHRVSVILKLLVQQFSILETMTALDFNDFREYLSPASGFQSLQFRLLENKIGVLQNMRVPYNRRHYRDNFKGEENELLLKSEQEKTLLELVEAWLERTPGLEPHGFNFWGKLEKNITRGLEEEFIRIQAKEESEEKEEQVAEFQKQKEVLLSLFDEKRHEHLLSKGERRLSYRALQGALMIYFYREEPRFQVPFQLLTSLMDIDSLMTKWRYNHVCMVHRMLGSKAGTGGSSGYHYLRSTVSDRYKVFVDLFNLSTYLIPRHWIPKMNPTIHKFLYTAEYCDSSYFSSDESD

With `Nc1oc2cnccc2c1Nc1cccc(F)c1` [Compound 46, N^3-(3-Fluorophenyl)furo[2,3-c]pyridine-2,3-diamine], the pIC50 at IDO1 in HeLa cells is > 6.70; in experiment [1], 6.00 to 6.70; in experiment [2], 5.70 to 6.30.
On the same counts, the results for `Nc1oc2cnccc2c1Nc1cc(Cl)c(F)c(Cl)c1` [Compound 47, N^3-(3,5-Dichloro-4-fluorophenyl)furo[2,3-c]pyridine-2,3-diamine] are 6.00 to 6.70, < 6.00 and 5.70 to 6.30.
On the same counts, the results for `Nc1oc2cnccc2c1Nc1cc(Cl)c(F)cc1F` [Compound 51, N^3-(5-Chloro-2,4-difluorophenyl)furo[2,3-c]pyridine-2,3-diamine] are > 6.70, < 6.00 and < 5.70.
Take `Nc1oc2cnccc2c1Nc1cc(Cl)ccc1Cl` [Compound 55, N^3-(2,5-Dichlorophenyl)furo[2,3-c]pyridine-2,3-diamine]: the results for the pIC50 (on IDO1 in HeLa cells; in experiment [1]; in experiment [2]) were > 6.70, < 6.00 and < 5.70, respectively.
Take `Nc1oc2cnccc2c1Nc1ccc(F)c(Br)c1` [Compound 58, N^3-(3-Bromo-4-fluorophenyl)furo[2,3-c]pyridine-2,3-diamine]: the negative logarithm of the IC50 (pIC50) was > 6.70 at IDO1 in HeLa cells, > 6.70 in experiment [1] and > 6.30 in experiment [2].
On to `Nc1oc2cnccc2c1Nc1ccc(F)c(C(F)(F)F)c1` [Compound 60, N^3-(4-Fluoro-3-(trifluoromethyl)phenyl)furo[2,3-c]pyridine-2,3-diamine], for which the pIC50 at IDO1 in HeLa cells is > 6.70; in experiment [1] it was > 6.70; in experiment [2], 5.70 to 6.30.
Take `Nc1oc2cnccc2c1Nc1ccc(F)c(OC(F)(F)F)c1` [Compound 62, N^3-(4-Fluoro-3-(trifluoromethoxy)phenyl)furo[2,3-c]pyridine-2,3-diamine]: the pIC50 against IDO1 in HeLa cells was > 6.70; in experiment [1] it was 6.00 to 6.70; in experiment [2] it was < 5.70.
For the compound `COc1cc2c(Nc3ccc(F)c(Cl)c3)c(N)oc2cn1` [Compound 64, N^3-(3-Chloro-4-fluoro-phenyl)-5-methoxy-furo[2,3-c]pyridine-2,3-diamine], the negative logarithm of the IC50 (pIC50) on IDO1 in HeLa cells is > 6.70; in experiment [1], > 6.70; in experiment [2], 5.70 to 6.30.
Take `Nc1oc2cnccc2c1Nc1cccc(C(F)F)c1` [Compound 65, N^3-(3-(Difluoromethyl)phenyl)furo[2,3-c]pyridine-2,3-diamine]: the pIC50 against IDO1 in HeLa cells was > 6.70; in experiment [1] it was > 6.70; in experiment [2] it was 5.70 to 6.30.
Regarding `Cc1nccc2c(Nc3ccc(F)c(Cl)c3)c(N)oc12` [Compound 66, N^3-(3-Chloro-4-fluoro-phenyl)-7-methyl-furo[2,3-c]pyridine-2,3-diamine], the pIC50 was > 6.70 at IDO1 in HeLa cells, > 6.70 in experiment [1] and > 6.30 in experiment [2].
As for `COc1cncc2oc(N)c(Nc3ccc(F)c(Cl)c3)c12` [Compound 67, N^3-(3-Chloro-4-fluoro-phenyl)-4-methoxy-furo[2,3-c]pyridine-2,3-diamine], the values for the pIC50 (on IDO1 in HeLa cells; in experiment [1]; in experiment [2]) were > 6.70, < 6.00 and 5.70 to 6.30, respectively.
As to `C#Cc1cccc(Nc2c(N)oc3cnccc23)c1` [Compound 68, N^3-(3-Ethynylphenyl)furo[2,3-c]pyridine-2,3-diamine], the pIC50 was > 6.70 against IDO1 in HeLa cells, 6.00 to 6.70 in experiment [1] and 5.70 to 6.30 in experiment [2].
`CC(F)(F)c1cc(Nc2c(N)oc3cnccc23)ccc1F` [Compound 69, N^3-(3-(1,1-Difluoroethyl)-4-fluorophenyl)furo[2,3-c]pyridine-2,3-diamine]: the pIC50 against IDO1 in HeLa cells is > 6.70; in experiment [1] it was 6.00 to 6.70; in experiment [2], < 5.70.
In the case of `Cc1cc(Nc2c(N)oc3cnccc23)ccc1Cl` [Compound 70, N^3-(4-Chloro-3-methylphenyl)furo[2,3-c]pyridine-2,3-diamine], the pIC50 on IDO1 in HeLa cells is > 6.70; in experiment [1], 6.00 to 6.70; in experiment [2], 5.70 to 6.30.
Consider `Nc1oc2cnccc2c1Nc1ccc2c(c1)CCCC2` [Compound 71, N^3-(5,6,7,8-Tetrahydronaphthalen-2-yl)furo[2,3-c]pyridine-2,3-diamine], for which the pIC50 against IDO1 in HeLa cells was > 6.70; in experiment [1] it was < 6.00; in experiment [2], < 5.70.
`Cc1ncc(C)c2c(Nc3ccc(F)c(Cl)c3)c(N)oc12` [Compound 72, N^3-(3-chloro-4-fluorophenyl)-4,7-dimethylfuro[2,3-c]pyridine-2,3-diamine]: the pIC50 on IDO1 in HeLa cells was 6.00 to 6.70; in experiment [1], 6.00 to 6.70; in experiment [2], 5.70 to 6.30.
In the case of `CCc1nccc2c(Nc3ccc(F)c(Cl)c3)c(N)oc12` [Compound 73, N^3-(3-Chloro-4-fluoro-phenyl)-7-ethyl-furo[2,3-c]pyridine-2,3-diamine], the pIC50 at IDO1 in HeLa cells was > 6.70; in experiment [1] it was > 6.70; in experiment [2], > 6.30.
Turning to `CCc1nccc2c(Nc3ccc(F)c(C(F)(F)F)c3)c(N)oc12` [Compound 74, 7-Ethyl-N^3-(4-fluoro-3-(trifluoromethyl)phenyl)furo[2,3-c]pyridine-2,3-diamine], the figures for the pIC50 (against IDO1 in HeLa cells; in experiment [1]; in experiment [2]) were > 6.70, > 6.70 and < 5.70, respectively.
As to `CCc1nccc2c(Nc3cccc(C(F)(F)F)c3)c(N)oc12` [Compound 76, 7-Ethyl-N^3-(3-(trifluoromethyl)phenyl)furo[2,3-c]pyridine-2,3-diamine], the negative-log IC50 (pIC50) against IDO1 in HeLa cells is > 6.70; in experiment [1], > 6.70; in experiment [2], 5.70 to 6.30.
Turning to `CCCc1nccc2c(Nc3ccc(F)c(Cl)c3)c(N)oc12` [Compound 77, N^3-(3-Chloro-4-fluoro-phenyl)-7-propyl-furo[2,3-c]pyridine-2,3-diamine], the pIC50 at IDO1 in HeLa cells is > 6.70; in experiment [1], > 6.70; in experiment [2], < 5.70.
In the case of `CCCc1nccc2c(Nc3cccc(C(F)(F)F)c3)c(N)oc12` [Compound 78, 7-Propyl-N^3-(3-(trifluoromethyl)phenyl)furo[2,3-c]pyridine-2,3-diamine], the figures for the pIC50 (at IDO1 in HeLa cells; in experiment [1]; in experiment [2]) were > 6.70, > 6.70 and < 5.70, respectively.
For `CCCc1nccc2c(Nc3ccc(F)c(C(F)(F)F)c3)c(N)oc12` [Compound 79, N^3-(4-Fluoro-3-(trifluoromethyl)phenyl)-7-propylfuro[2,3-c]pyridine-2,3-diamine], the pIC50 against IDO1 in HeLa cells is > 6.70; in experiment [1] it was > 6.70; in experiment [2], 5.70 to 6.30.
For `Cc1nccc2c(Nc3cccc(C(F)(F)F)c3)c(N)oc12` [Compound 80, 7-Methyl-N^3-(3-(trifluoromethyl)phenyl)furo[2,3-c]pyridine-2,3-diamine], the pIC50 against IDO1 in HeLa cells is > 6.70; in experiment [1], > 6.70; in experiment [2] it was < 5.70.
As to `Nc1oc2c(-c3ccccc3)nccc2c1Nc1ccc(F)c(Cl)c1` [Compound 81, N^3-(3-Chloro-4-fluorophenyl)-7-phenylfuro[2,3-c]pyridine-2,3-diamine], the pIC50 at IDO1 in HeLa cells was > 6.70; in experiment [1], > 6.70; in experiment [2], > 6.30.
For the compound `Nc1oc2c(-c3ccccc3)nccc2c1Nc1cccc(C(F)(F)F)c1` [Compound 82, 7-Phenyl-N^3-(3-(trifluoromethyl)phenyl)furo[2,3-c]pyridine-2,3-diamine], the figures for the pIC50 (against IDO1 in HeLa cells; in experiment [1]; in experiment [2]) were > 6.70, > 6.70 and < 5.70, respectively.
Consider `CC(C)c1nccc2c(Nc3ccc(F)c(Cl)c3)c(N)oc12` [Compound 83, N^3-(3-Chloro-4-fluorophenyl)-7-isopropylfuro[2,3-c]pyridine-2,3-diamine], for which the results for the pIC50 (against IDO1 in HeLa cells; in experiment [1]; in experiment [2]) were > 6.70, > 6.70 and 5.70 to 6.30, respectively.
Consider `Nc1oc2cnccc2c1Nc1cccc(CC2CC2)c1` [Compound 84, N^3-(3-(Cyclopropylmethyl)phenyl)furo[2,3-c]pyridine-2,3-diamine], for which the pIC50 at IDO1 in HeLa cells was 6.00 to 6.70; in experiment [1], < 6.00; in experiment [2] it was < 5.70.
In the case of `COc1cc2c(Nc3ccc(F)c(Cl)c3)c(N)oc2c(C)n1` [Compound 85, N^3-(3-Chloro-4-fluoro-phenyl)-5-methoxy-7-methyl-furo[2,3-c]pyridine-2,3-diamine], the pIC50 against IDO1 in HeLa cells is > 6.70; in experiment [1] it was > 6.70; in experiment [2] it was 5.70 to 6.30.
